Results: patent publication US11299518B2, “Fusion respiratory syncytial virus inhibitors and use thereof” (priority 2016, dated 2022)
Read-outs that look alike come from different tables or passages of the source. Bridge positions count the residues as written; N and C are the ends. Square brackets hold non-standard residues; d marks the D form. Peptide text beside a SMILES is read from it. R8 = C=CCCCCCC[C@@](C)(N)C(=O)O; S5 = C=CCCC[C@](C)(N)C(=O)O

Tests used:
[1] = test system: recombinant green fluorescent protein (GFP)-expressing RSV virus (strain A2); experiment: HRSV-eGFP inhibition assay (cellular viral fusion assay, A549 cells, flow cytometry); type: cell-based
Method: The inhibitory activity of the peptides of the invention was assessed in a cellular viral fusion assay as compared to comparative peptides as follows. A549 cells were infected with a recombinant green fluorescent protein (GFP)-expressing RSV virus (strain A2) obtained as described below and in Hallak et al., 2000, Virology, 271:264-275, and the inhibitory activity of the peptides was quantified by flow cytometry.
Following rapid thawing of the frozen eGFP encoding RSV virus at […], the virus was vortexed for 2 min, and pipetted up and down to break aggregates. Serial 4-fold dilutions of inhibitors were prepared in glass tubes and mixed with a volume of virus required to achieve approximately 50% of infection in 200 μl of media containing 2% of FCS. The resulting mixture was added to 24-well plates containing A549 cells. Cells were incubated for 2 hours at 37° C., the media was replaced, and cells were incubated for an additional 24 hours. Cells were treated with 300 μl of trypsin for 10 min at 37° C., and the detached cells were diluted in 1 ml of culture medium. Following centrifugation at 1′700 rpm, the pellet was resuspended in 300 μl of PBS+1% SBF (V/V) and GFP positive cells were counted by FACS analysis.

[2] = CD spectroscopy, percentage of helicity; type: physicochemical; conditions: CD at 222 nm, 10 mM phosphate buffer pH 7.5, 50 μM peptide, 25° C.
How it was run: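 CD spectra were recorded at 25 °C on 50 μM peptide in 10 mM phosphate buffer, pH 7.5, from 180 to 260 nm, averaged over three scans and buffer-subtracted. Percent helicity was calculated from molar ellipticity at 222 nm, normalized to residue number and peptide concentration.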

RSV [3] = conditions: DeVincenzo et al., 2014; cited from earlier work
RSV [4] = conditions: Lambert et al., 1996; read-out: EC50 reported previously; cited from earlier work
[5] = Proteolytic stability assay, trypsin; type: in vitro ADME; conditions: trypsin (isolated protease), pH 8; 50 mM Tris-HCl pH8, 25° C., LC-MS; read-out: t1/2 (min) Trypsin
Method: (§1) The compounds according to the invention are tested for their stability in a proteolytic stability assay as described below which is an important parameter to assess for the development of peptide therapeutics. Peptides of the invention 4bb, 4ca, 4a and their unstapled comparative peptide 4, as well as both SAH-RSVFBD isomers were treated with chymotrypsin and trypsin, and analysed by LC/MS to quantify the reaction products over time.
(§2) In vitro proteolytic degradation was measured via LC-MS using an Agilent Infinity 1280 UHPLC system coupled to an Agilent quadruple-time-of-flight (QTOF) 6530 with an Agilent Jet Stream electrospray ionisation (AJS ESI) source (all Agilent Technologies, Waldbronn, Germany). 5 μl of digested sample were injected onto a C18 column (Zorbax Eclipse Plus RRHD, 1.8 μm, 2.1*100 mm, Agilent Technologies, Waldbronn, Germany) equilibrated with solvent A and eluted with a flow rate of 0.4 ml/min over a 5-95% gradient of solvent B in 5 minutes, followed by 1.5 minutes at 95% and 0.5 minutes post-time where solvent A was 95% water, 5% acetonitrile with 0.2% formic acid and solvent B was 5% water, 95% acetonitrile with 0.2% formic acid. The AJS ESI source was operated with a capillary voltage of 4000V and a nozzle voltage of 600V with a drying gas temperature of 325° C. and flow rate of 10 l/min, nebulising gas pressure of 20 psi, and a sheath gas temperature of 300° C. and flow rate of 11l/min. Mass spectra were acquired in the positive ion mode from 100-3200 m/z at a rate of 1 scan per second in extended dynamic range (2 GHz) mode. The fragmentor, skimmer and octopole Radio Frequency voltages were set to 200, 60 and 750 V respectively. Data were acquired and analysed with Agilent MassHunter Workstation (version B.05).
(§3) Peptide digestion was performed as it follows: 10 μl of peptide at 0.29 mM in 50/50 acetonitrile/water were dissolved in 990 μl 100 mM Tris-HCl, pH 8.0 with 10 mM CaCl2. Following measurement of the undigested (to) sample, 10 μl of chymotrypsin at 50 μg/ml in 100 mM Tris-HCl, pH 8.0 with 10 mM CaCl2 were added and the sample was vortexed and placed immediately in the autosampler, set to 25° C. Trypsin digestion was performed as with chymotrypsin except that the buffer was in 50 mM Tris-HCl, pH8. Chymotrypsin and trypsin were purchased from Thermo Fisher Scientific.
(§4) The level of intact peptide was quantified by serial injection over time. Integration of the intact peptide compound chromatogram was performed using the Agilent Molecular Feature Extraction (MFE) algorithm. A plot of the intact peptide MFE peak area over time gave an exponential decay curve, from which the half-life was determined using MatLab […].

chymotrypsin = target: T1, chymotrypsin (Bos taurus, UniProt P00766); experiment: Proteolytic stability assay, chymotrypsin; type: in vitro ADME
T1 construct: purchased Thermo Fisher Scientific
Method: as §1, §2, §3, §4

CC[C@H](C)[C@H](NC(=O)[C@H](Cc1ccccc1)NC(=O)[C@]1(C)CCCC=CCCC[C@](C)(NC(=O)[C@@H](NC(=O)[C@H](CCCCN)NC(=O)[C@H](CCC(=O)O)NC(C)=O)[C@@H](C)CC)C(=O)N[C@@H](CCC(N)=O)C(=O)N[C@@H](CO)C(=O)N[C@@H](CC(C)C)C(=O)N1)C(=O)N[C@@H](CCCNC(=N)N)C(=O)N[C@]1(C)CCCCCCC=CCCC[C@@](C)(C(=O)N[C@H](C(N)=O)C(C)C)NC(=O)[C@H](Cc2c[nH]cn2)NC(=O)[C@H](CC(C)C)NC(=O)[C@H](CC(C)C)NC(=O)[C@H](CCC(=O)O)NC(=O)[C@H](CC(=O)O)NC(=O)[C@H](CO)NC1=O [Peptide 4bf, EKI X500 QSL X504 FIR 8508 SDELLH X515V, reference compound] (Ac-EKI[S5]QSL[S5]FIR[R8]SDELLH[S5]V-NH2; staple 4-8, 12-19 (inferred))
inhibitory activity in cellular viral fusion assay [1]: inactive | % helicity [2]: >100%

Cc1cn2nc([C@@H]3CCCCN3C(=O)c3cc(Cl)ccc3NS(C)(=O)=O)cc2nc1N1CC[C@H](N)C1 [GS-5806]
EC50 (RSV [3]): 0.4 nM

Ac-YDPLVFPSDEFDASISQVNEKINQSLAFIRKSDEL-NH2 (N-terminus and C-terminus assumed) [Peptide T108]
EC50 (RSV [4]): 1480 nM

Ac-EKINQSLAFIRKSDELLHNV-NH2 (N-terminus and C-terminus assumed) [Peptide 4, reference compound]
half-life [5]: 5 min | half-life at 2.9 µM (chymotrypsin; chymotrypsin (isolated protease), 100 mM Tris-HCl pH 8.0, 10 mM CaCl2, 25° C., LC-MS, read-out: t1/2 (min) Chymotrypsin): 4.5 min | time to full degradation (chymotrypsin; treated with chymotrypsin and trypsin): 10 min
